According to patent US10100077B2, “6-aryl-9-glycosylpurines and use thereof” (UNIVERZITA PALACKEHO V OLOMOUCI, priority 2014, dated 2018):
pIC50: −log10 of the molar value.

Legend:
[1] = Calcein AM cytotoxicity assay, K562; format: cell-based, human; details: human, K562 erythroleukemia cells
From the text: (§1) One of the parameters used as the base for cytotoxic analysis is metabolic activity of viable cells, such as microtiter assay, which uses the Calcein AM, is now widely used to quantitate cell proliferation and cytotoxicity. The quantity of reduced Calcein AM corresponds to the number of viable cells in culture. The cell lines of breast cancer (MCF-7), mousse fibroblasts (NIH3T3), human erythromleukemia (K562) were used for routine screening of cytotoxicity of the compounds. The cells were maintened in Nunc/Corning 80 cm^2 plastic bottles and grown in media for cell culture (DMEM containing 5 g/l of glucose, 2 mM of glutamin, 100 U/ml of penicilin, […] of streptomycin, 10% of fetal bovine serum and sodium hydrogencarbonate). Cell suspensions were diluted according to cell types and according to expected final cell density (10^4 of cells per well according to characteristics of cell growth), pipetted 80 μl of cell suspension on 96-well microtiter plates. Innoculates were stabilized by 24 hrs preincubation at 37° C. in CO2. Particular concentrations of tested compounds were added in time zero as 20 μl aliquotto wells of microtiter plates. Usually, the compounds were diluted into six concentrations in four-fold dilution series. In routine testing, the highest well concentration was 166.7 μM, of change dependent on the substance. All drug concentrations were examined in duplicates. The incubation of cells with tested derivatives lasted 72 hrs at 37° C., 100% humidity and in the atmosphere of CO2. At the end of the incubation period, the cells were tested and analysed according to the addition of Calcein AM (Molecular probes) solution and the incubation lasted for next 1 hour. Fluorescence (FD) was measured using Labsystem FIA reader Fluorskan Ascent (Microsystems). The survival of tumor cells (The tumor cell survival-TCS) was counted according to equation: […]=(FDwell with derivative/FDcontrol well)×100%. The value of GI50, that is equal to the concentration of compound at which 50% of tumour cells are terminated. To evaluate the antitumor activity was tested toxicity of new derivatives on panel of cell lines of different histogenetic and species origin (Tab. 7, G150 concentration given in μM). […] Effective derivatives killed tumor cells in concentrations close to 0.1 to 50. None of the newly prepared compounds only reached the value.

[2] = tested on: skin fibroblasts BJ and keratinocytes HaCaT; assay: SRB in vitro toxicity test; format: cell-based; details: Homo sapiens, 72 hour treatment, maximal concentration 50 microM
Description: SRB (sulforhodamine B) assay is a standard toxicity test based on a photometric measurement of the cellular protein content after the staining with sulphorhodamine B. Using the assay, the effects of 72 hour treatments with several concentrations of the compounds (sixfold dilution, maximal concentration=50 microM) on viability of skin fibroblasts BJ and keratinocytes HaCaT were evaluated. About 5,000 cells were seeded per well of a 96-well plate 24 hours before the treatment. DMSO vehiculum was used as a negative non-toxic control. 6-benzylaminopurine riboside a 6-furfurylaminopurin riboside were used as positive toxic controls. After three days the medium was removed and the cells fixed with 10% (wt/vol) trichloroacetic acid. After the extensive washing in distilled water, 0.4% (wt/vol) solution of SRB in acetic acid was added and the fixed cells were stained for 30 minutes. The unbound stain was washed away by distilled water and the bound SRB was solubilized in unbuffered 10 mM Tris base. Absorbance was measured at 564 nm. IC50 values were calculated from dose-response curves.

BJ skin fibroblasts = assay: One-step growth curve; format: cell-based; details: 12.5 to 100 μM, counted on 7th and 14th day
Description: The experiments were performed with BJ skin fibroblasts in 24-well tissue culture plates. About 10,000 cells in culture medium comprising DMEM with 10% FBS were seeded into the individual wells. The cells were allowed to attach for 24 hourse. The test compound was added to final concentrations in a range from 12.5 to 100 μM. DMSO vehiculum was also tested. In order to control for variability, two plate columns (A, D) were treated with DMSO vehiculum. The culture medium with the test chemicals or DMSO vehiculum was changed twice a week. Following trypsinization, the numbers of cells in 4 wells for each concentration were counted using Coulter counter on 7th and 14th day.

[3] = tested on: skin fibroblasts BJ and keratinocytes HaCaT; assay: MTT in vitro cytotoxicity test for skin cells; format: cell-based; details: Homo sapiens; MTT, 72 hour treatment, BJ and HaCaT, maximal concentration 50 microM
Description: MTT assay is a standard test of toxicity based on photometric measurement of the ability of metabolically active cells to reduce MTT (3-(4,5-dimethylthiazol-2-yl)-2,5-diphenyltetrazolium bromide). Using the assay, the effects of 72 hour treatments with several concentrations of the compounds (sixfold dilution, maximal concentration=50 microM) on viability of skin fibroblasts BJ and keratinocytes HaCaT were evaluated. About 5,000 cells were seeded per well of a 96-well plate 24 hours before the treatment. DMSO vehiculum was used as a negative control. After 72 hour treatment, new medium with MTT (Sigma, M2128) was added to a final concentration of 0.5 mg/ml. After 3 hours, medium was removed and resulting formazan in the cells was dissolved in DMSO. The absorbance was measured at 570 nm (640 nm reference wavelength). The IC50 values were calculated from the dose-response curves. 6-Benzylaminopurine riboside and 6-furfurylaminopurine riboside were used as positive controls they were toxic in the MTT test.

[4] = Calcein AM cytotoxicity assay, NIH3T3; format: cell-based, mouse; details: mouse, NIH3T3 fibroblasts
From the text: as §1

[5] = Calcein AM cytotoxicity assay, MCF-7; format: cell-based; details: human, MCF-7 breast cancer cells
From the text: as §1

[6] = tested on: Vaccinia virus and Herpes simplex virus; details: cited from earlier work

OC[C@H]1O[C@@H](n2cnc3c(NCc4ccccc4)ncnc32)[C@@H](O)[C@@H]1O [6-benzylamino-9-β-D-arabinofuranosylpurine]
GI50 at 72 h [1]: > 100 µM | pIC50 [2]: < 4.30 | influence on cell viability (cell numbers, growth curve) (BJ skin fibroblasts): did not have a negative influence on cell viability | pIC50 [3]: < 4.30 | GI50 at 72 h [4]: > 100 µM | GI50 at 72 h [5]: > 100 µM | activity in killing Vaccinia virus and Herpes simplex virus [6]: No effect
